Bases are written 5' to 3'; sugars and linkages follow in the same order, as letters with counts (s phosphorothioate, o phosphodiester; PS: all linkages phosphorothioate). C may stand for cytosine or 5-methylcytosine; the collection does not tell. l = locked nucleic acid (LNA); d = 2'-deoxy (DNA)

The target in the data set is HIF1A. In words: HeLa, 100 nM transfected, 24 h, mean of 3. The settings on record: ASO.
Regarding “TGGCAAGCATCCTGTA (sugars l1 d2 l1 d10 l2, PS)”, the caspase activation (% of PBS control) is 196.

“TGGCAAGCATCCTGTA (sugars llldlddddddddldl, PS)” displayed a caspase activation (% of PBS control) of 350.

Regarding TGGCAAGCATCCT (sugars l4 d8 l1, PS), the caspase activation (% of PBS control) worked out at 471.

“GTTACTGCCTTCTTAC (sugars llldlddddddllldl, PS)”: the caspase activation (% of PBS control) came out at 485.

For GCAAGCATCCTGT (sugars l4 d7 l2, PS), the caspase activation (% of PBS control) worked out at 352.

The sequence “GTTACTGCCTTCTTAC (sugars l1 d10 l3 d1 l1, PS)” registered a caspase activation (% of PBS control) of 261.

Consider “TGGCAAGCATCCTGTA (sugars l5 d6 l1 d3 l1, PS)”, for which the caspase activation (% of PBS control) is 371.

“TGGCAAGCATCCTGTA (sugars llddldddddddlldl, PS)” displayed a caspase activation (% of PBS control) of 341.

For the sequence TGGCAAGCATCCTGTA (sugars l1 d11 l4, PS), the caspase activation (% of PBS control) worked out at 346.

In turn, “GTTACTGCCTTCTTAC (sugars l3 d9 l1 d1 l2, PS)” registered a caspase activation (% of PBS control) of 188.

“TGGCAAGCATCCTGTA (sugars ldlllddddddlldll, PS)”: the caspase activation (% of PBS control) is 437.

For “TGGCAAGCATCCTGTA (sugars l3 d9 l1 d2 l1, PS)”, the caspase activation (% of PBS control) is 210.

“GGCAAGCATCCTG (sugars l1 d2 l1 d6 l3, PS)” came in with a caspase activation (% of PBS control) of 397.

As to “GTTACTGCCTTCTTAC (sugars l1 d10 l1 d2 l2, PS)”, the caspase activation (% of PBS control) is 102.

Consider “TGGCAAGCATCCTGTA (sugars l3 d1 l1 d8 l3, PS)”, for which the caspase activation (% of PBS control) amounted to 413.

“TGGCAAGCATCCTGTA (sugars lddllddddddllddl, PS)” returned a caspase activation (% of PBS control) of 388.

The sequence “GTTACTGCCTTCTTAC (sugars l1 d1 l2 d8 l4, PS)” had a caspase activation (% of PBS control) of 200.

On to “TGGCAAGCATCCTGTA (sugars l1 d1 l2 d9 l3, PS)”, for which the caspase activation (% of PBS control) was found to be 479.

The sequence “GTTACTGCCTTCTTAC (sugars l4 d7 l1 d1 l3, PS)” gave a caspase activation (% of PBS control) of 253.

In turn, “TGGCAAGCATCCTGTA (sugars lddldddddddllddl, PS)” yielded a caspase activation (% of PBS control) of 314.

“GTTACTGCCTTCTTAC (sugars l1 d11 l1 d2 l1, PS)” gave a caspase activation (% of PBS control) of 115.

Turning to GTTACTGCCTTCT (sugars l2 d8 l3, PS), the caspase activation (% of PBS control) was found to be 168.

“GTTACTGCCTTCTTAC (sugars l5 d6 l1 d2 l2, PS)” displayed a caspase activation (% of PBS control) of 442.

“TGGCAAGCATCCTGTA (sugars ldlldddddddldldl, PS)”: the caspase activation (% of PBS control) was 400.

Sequence “GTTACTGCCTTCTTAC (sugars ldlldddddddldddl, PS)” showed a caspase activation (% of PBS control) of 213.

As for “GTTACTGCCTTCT (sugars l1 d1 l2 d6 l3, PS)”, the caspase activation (% of PBS control) stood at 239.

Turning to “TACTGCCTTCTTA (sugars l1 d1 l2 d8 l1, PS)”, the caspase activation (% of PBS control) is 270.

As to “GCAAGCATCCTGT (sugars l1 d2 l1 d7 l2, PS)”, the caspase activation (% of PBS control) is 151.

Regarding GGCAAGCATCCTG (sugars l1 d10 l2, PS), the caspase activation (% of PBS control) is 394.

In the case of GTTACTGCCTTCT (sugars l2 d9 l2, PS), the caspase activation (% of PBS control) came out at 114.

The sequence “TGGCAAGCATCCTGTA (sugars llddlddddddllddl, PS)” gave a caspase activation (% of PBS control) of 385.

For the sequence “GTTACTGCCTTCTTAC (sugars l4 d8 l1 d2 l1, PS)”, the caspase activation (% of PBS control) stood at 209.

“GTTACTGCCTTCTTAC (sugars llldlddddddddldl, PS)” displayed a caspase activation (% of PBS control) of 271.

The sequence “GTTACTGCCTTCTTAC (sugars l4 d7 l2 d1 l2, PS)” gave a caspase activation (% of PBS control) of 291.

The sequence “TGGCAAGCATCCTGTA (sugars l1 d10 l3 d1 l1, PS)” yielded a caspase activation (% of PBS control) of 381.

The sequence “TGGCAAGCATCCTGTA (sugars lddlddddddddlddl, PS)” showed a caspase activation (% of PBS control) of 312.

On to “TGGCAAGCATCCTGTA (sugars l1 d3 l1 d9 l2, PS)”, for which the caspase activation (% of PBS control) worked out at 135.

“TGGCAAGCATCCTGTA (sugars lldllddddddlldll, PS)” displayed a caspase activation (% of PBS control) of 493.

Consider “GTTACTGCCTTCT (sugars l1 d2 l1 d6 l3, PS)”, for which the caspase activation (% of PBS control) amounted to 134.

“TGGCAAGCATCCTGTA (sugars lddllddddddlddll, PS)” displayed a caspase activation (% of PBS control) of 257.

Sequence “GGCAAGCATCCTG (sugars l4 d6 l1 d1 l1, PS)” registered a caspase activation (% of PBS control) of 607.

The sequence “TGGCAAGCATCCTGTA (sugars ldlllddddddddldl, PS)” showed a caspase activation (% of PBS control) of 448.

In turn, “TACTGCCTTCTTA (sugars ldllddddddldl, PS)” yielded a caspase activation (% of PBS control) of 317.

As to “TGGCAAGCATCCTGTA (sugars l2 d1 l1 d9 l3, PS)”, the caspase activation (% of PBS control) is 520.

Consider TGGCAAGCATCCTGTA (sugars l3 d9 l4, PS), for which the caspase activation (% of PBS control) amounted to 582.

The sequence “TGGCAAGCATCCTGTA (sugars l1 d3 l1 d8 l3, PS)” registered a caspase activation (% of PBS control) of 172.

Turning to TACTGCCTTCTTA (sugars l3 d7 l3, PS), the caspase activation (% of PBS control) came out at 489.

Take “GTTACTGCCTTCTTAC (sugars lldllddddddldldl, PS)”: the caspase activation (% of PBS control) turned out to be 294.

The sequence “TTACTGCCTTCTT (sugars l1 d1 l2 d7 l2, PS)” showed a caspase activation (% of PBS control) of 165.

“CAAGCATCCTGTA (sugars l1 d1 l2 d7 l2, PS)” yielded a caspase activation (% of PBS control) of 151.

In the case of “GTTACTGCCTTCTTAC (sugars ldlllddddddldlll, PS)”, the caspase activation (% of PBS control) is 427.

“TGGCAAGCATCCTGTA (sugars lldddddddddldldl, PS)” returned a caspase activation (% of PBS control) of 423.

“GTTACTGCCTTCTTAC (sugars l3 d8 l2 d1 l2, PS)” gave a caspase activation (% of PBS control) of 243.

Sequence GCAAGCATCCTGT (sugars l1 d10 l2, PS) came in with a caspase activation (% of PBS control) of 112.

The sequence “GCAAGCATCCTGT (sugars l4 d6 l1 d1 l1, PS)” registered a caspase activation (% of PBS control) of 305.

Turning to “GTTACTGCCTTCTTAC (sugars ldddldddddddlldl, PS)”, the caspase activation (% of PBS control) came out at 245.

In turn, “TGGCAAGCATCCTGTA (sugars lddlldddddddlddl, PS)” had a caspase activation (% of PBS control) of 461.

In turn, “ACTGCCTTCTTAC (sugars l1 d1 l1 d7 l3, PS)” registered a caspase activation (% of PBS control) of 257.

Consider “TGGCAAGCATCCTGTA (sugars l2 d1 l1 d7 l5, PS)”, for which the caspase activation (% of PBS control) stood at 427.

In turn, “TACTGCCTTCTTA (sugars lddlddddddldl, PS)” registered a caspase activation (% of PBS control) of 133.

The sequence “GTTACTGCCTTCTTAC (sugars ldlldddddddlldll, PS)” returned a caspase activation (% of PBS control) of 218.

Turning to “GTTACTGCCTTCTTAC (sugars lllddddddddldldl, PS)”, the caspase activation (% of PBS control) is 233.

GTTACTGCCTTCTTAC (sugars l5 d10 l1, PS) returned a caspase activation (% of PBS control) of 284.

Turning to TTACTGCCTTCTT (sugars l3 d8 l2, PS), the caspase activation (% of PBS control) was 226.

Sequence “GTTACTGCCTTCT (sugars l1 d2 l1 d8 l1, PS)” yielded a caspase activation (% of PBS control) of 110.

With “TGGCAAGCATCCTGTA (sugars lldldddddddllddl, PS)”, the caspase activation (% of PBS control) was found to be 309.

Regarding “GTTACTGCCTTCTTAC (sugars l2 d9 l3 d1 l1, PS)”, the caspase activation (% of PBS control) was found to be 333.

For “ACTGCCTTCTTAC (sugars l1 d2 l1 d8 l1, PS)”, the caspase activation (% of PBS control) was 119.

“TGGCAAGCATCCTGTA (sugars l3 d9 l1 d1 l2, PS)” came in with a caspase activation (% of PBS control) of 416.

Take “TGGCAAGCATCCTGTA (sugars l5 d7 l2 d1 l1, PS)”: the caspase activation (% of PBS control) is 381.

The sequence TACTGCCTTCTTA (sugars l4 d6 l3, PS) returned a caspase activation (% of PBS control) of 404.

For the sequence “GTTACTGCCTTCTTAC (sugars lddldddddddllddl, PS)”, the caspase activation (% of PBS control) is 135.

In turn, TGGCAAGCATCCT (sugars l2 d10 l1, PS) had a caspase activation (% of PBS control) of 364.

The sequence “TGGCAAGCATCCTGTA (sugars lldllddddddldlll, PS)” displayed a caspase activation (% of PBS control) of 438.

On to “TGGCAAGCATCCTGTA (sugars llldlddddddllldl, PS)”, for which the caspase activation (% of PBS control) turned out to be 413.

As to GTTACTGCCTTCTTAC (sugars l1 d11 l4, PS), the caspase activation (% of PBS control) was determined as 125.

As for “TGGCAAGCATCCTGTA (sugars lldldddddddldlll, PS)”, the caspase activation (% of PBS control) was found to be 423.

For the sequence TGGCAAGCATCCTGTA (sugars l5 d6 l5, PS), the caspase activation (% of PBS control) turned out to be 445.

“TGGCAAGCATCCTGTA (sugars lldldddddddlddll, PS)” displayed a caspase activation (% of PBS control) of 460.

“TGGCAAGCATCCTGTA (sugars l1 d1 l3 d6 l5, PS)” gave a caspase activation (% of PBS control) of 482.

“GTTACTGCCTTCTTAC (sugars l2 d2 l1 d6 l5, PS)” returned a caspase activation (% of PBS control) of 365.

Consider ACTGCCTTCTTAC (sugars l1 d9 l3, PS), for which the caspase activation (% of PBS control) came to 140.

Take “GTTACTGCCTTCTTAC (sugars llldlddddddldlll, PS)”: the caspase activation (% of PBS control) amounted to 273.

Sequence “GTTACTGCCTTCTTAC (sugars llddlddddddldddl, PS)” yielded a caspase activation (% of PBS control) of 191.

With “TGGCAAGCATCCTGTA (sugars ldllddddddddlddl, PS)”, the caspase activation (% of PBS control) was determined as 438.

With “TGGCAAGCATCCTGTA (sugars ldlldddddddllldl, PS)”, the caspase activation (% of PBS control) amounted to 438.

For “TGGCAAGCATCCTGTA (sugars l4 d9 l1 d1 l1, PS)”, the caspase activation (% of PBS control) was 425.

Regarding “GTTACTGCCTTCTTAC (sugars lldldddddddldlll, PS)”, the caspase activation (% of PBS control) stood at 170.

Take “TGGCAAGCATCCTGTA (sugars l4 d8 l1 d2 l1, PS)”: the caspase activation (% of PBS control) came out at 429.

These data come from the OligoGym collection.
